The values that follow come from patent US20240391928A1, “COMPOSITIONS FOR THE TREATMENT OF FOOD AND CHEMICAL ADDICTION AND METHODS OF MAKING AND USING SAME” (Duke University, priority 2021, published 2024).

Experiment [1] relates to human hGHSR1a-vasopressin receptor 2 tail chimera. The experiment in a line: β-arr2^GFP translocation, compound screening (U2OS). The following applies: secondary assay of HTS hits; for Beta-arrestin translocation ECmax (%): normalized to L585; for EC50: read-out: Beta-arrestin translocation EC50. It is filed as cell-based.
A further experiment addresses hGHSR1a^WT (Homo sapiens, UniProt Q92847). Nature of the experiment: Gαq-dependent intracellular Ca2+ mobilization (iCa2+, miAeq). The arrangement: HEK293/T (transient); HEK293S Gαq knockout (transient, NanoBiT Gαq). It is filed as cell-based. The settings on record: for Calcium signaling ECmax (%) / EC50: secondary assay of HTS hits; for Calcium signaling ECmax (%): normalized to L585; for EC50: read-out: Calcium signaling EC50; for inhibition of iCa2+ evoked by N8279, ghrelin or L585: 30 minute antagonist pretreatment. The protocol: Gαq-Dependent Intracellular Ca^2+ Mobilization. […] Cells were split into and seeded into 10 cm dishes without antibiotic selection and grown to confluency overnight. The next morning, cells were serum starved in 10 mL of clear opti-MEM (supplemented with L-glutamine and HEPES; Gibco, Waltham, MA) for 3-4 hours in a 37° C. incubator with 5% CO2. Then, 25 μL of coelenterazine H (NanoLight Technology, Pinetop, AZ) was added to each 10 mL dish and incubated for another 1-2 hours. For antagonist assays, test compounds were either added directly to the media in 10 cm dishes, or cells were collected by gentle washing/trituration and plated onto white, clear-bottomed 96-well plates for 30 minutes—1 hour. Once the coelenterazine H (or antagonist) incubation was complete, cells were harvested from the 10 cm dish by gentle washing/trituration and collected in a 15 mL conical tube. Cell suspensions were then immediately subjected to assay by injecting cells onto a white, clear-bottomed 96-well plate containing 2× test compounds. Luminescence was read without delay and for 10 seconds per well. To control for cell number variability, cells were lysed in 2× lysis buffer (100 mM CaCl2+0.2% Triton-X) immediately following the assay. The max ligand-induced response (Ca^2+ mobilization: net-miAeq) over 10 seconds was normalized by dividing the ligand-induced luminescence counts (L-miAeq) by the ligand-induced luminescence counts (L-MiAeq) plus the luminescence measured upon cell lysis (Lysis-miAeq). Relative, lysis-normalized data were then normalized to the appropriate control/reference condition.
For experiments with WT and Gt KO HEK293/S cells, […] of hGHSR1a^WT, 10 μg of miAEQ, and 2.5 μg of pcDNA3.1 was transiently transfected into 10 cm dishes and incubated overnight. […] Twenty-four hours later, experiments proceeded in accordance with the procedures described above. To control for any possible kinetic differences in genetically modified cell lines or GHSR1a variants, the average ligand-induced response over 10 seconds was calculated, then normalized by dividing the L-miAeq by the L-miAeq plus the Lysis-miAeq and normalized to the appropriate control/reference condition.

hGHSR1a^WT, sequence (Q92847 whole entry): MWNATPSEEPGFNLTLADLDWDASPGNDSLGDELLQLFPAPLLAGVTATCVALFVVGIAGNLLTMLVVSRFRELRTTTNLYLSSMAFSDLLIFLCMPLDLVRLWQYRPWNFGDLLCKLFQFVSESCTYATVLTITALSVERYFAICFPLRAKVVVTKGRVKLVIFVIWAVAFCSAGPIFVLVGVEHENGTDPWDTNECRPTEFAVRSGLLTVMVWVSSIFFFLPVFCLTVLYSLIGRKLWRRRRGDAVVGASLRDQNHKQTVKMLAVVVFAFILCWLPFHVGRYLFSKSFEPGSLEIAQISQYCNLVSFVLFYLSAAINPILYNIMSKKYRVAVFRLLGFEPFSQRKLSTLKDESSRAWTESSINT

Take `CC(C)c1ccc(C2c3c(oc4ccc(Cl)cc4c3=O)C(=O)N2CCCN2CCOCC2)cc1` (stereo not shown) [NCGC00119774]: in experiment [1], the “Beta-arrestin translocation ECmax (%)” value was found to be 163% and the EC50 (commonly the concentration that produces a half-maximal response) worked out at 3.05 µM. For the same compound, on hGHSR1a^WT, the “Calcium signaling ECmax (%)” value is 75% and the EC50 turned out to be 5.62 µM.
As to `CC(C)CCOc1cccc(C2c3c(oc4ccccc4c3=O)C(=O)N2CCCN2CCOCC2)c1` (stereo not shown) [MLS000115603], the EC50 in experiment [1] was approximately 4690 µM; at hGHSR1a^WT, 0.00681 µM. In addition, the “Calcium signaling ECmax (%)” value at hGHSR1a^WT was found to be 48%.
Take `CCOc1ccc(C2c3c(oc4ccc(C)cc4c3=O)C(=O)N2CCCN2CCOCC2)cc1` (stereo not shown) [NCGC00141056]: in experiment [1], the “Beta-arrestin translocation ECmax (%)” value is recorded as 19% and the EC50 came to 0.00219 µM. Besides, at hGHSR1a^WT, the “Calcium signaling ECmax (%)” value came to 68% and the EC50 was 0.938 µM.
Take `CCCCOCCCn1c(N)c(C(=O)OC(C)COC)c2nc3ccccc3nc21` (stereo not shown) [MLS000036469]: the EC50 is 147 µM in experiment [1] and 0.00306 µM at hGHSR1a^WT. Besides, the “Calcium signaling ECmax (%)” value on hGHSR1a^WT was determined as 50%.
Consider `Cc1cc(C)c2c(=O)c3c(oc2c1)C(=O)N(Cc1ccco1)C3c1ccc(F)cc1` (stereo not shown) [NCGC00116418], for which the EC50 on hGHSR1a^WT is approximately 3010 µM.
`CCCOc1cccc(C2c3c(oc4ccc(F)cc4c3=O)C(=O)N2CCCN2CCOCC2)c1` (stereo not shown) [NCGC00101919]: in experiment [1], the “Beta-arrestin translocation ECmax (%)” value was found to be 99% and the EC50 was determined as 1.74 µM. Also, the EC50 at hGHSR1a^WT is approximately 1520 µM.
As for `CSc1ccc(C2c3c(oc4ccccc4c3=O)C(=O)N2CCCN2CCOCC2)cc1` (stereo not shown) [NCGC00101907], in experiment [1], the “Beta-arrestin translocation ECmax (%)” value is 39% and the EC50 turned out to be 0.558 µM. On hGHSR1a^WT, the “Calcium signaling ECmax (%)” value amounted to 40% and the EC50 stood at 3.35 µM.
For `Cc1ccc2oc3c(c(=O)c2c1)C(c1ccccc1F)N(CCCN(C)C)C3=O` (stereo not shown) [NCGC00101939] the same measures were 20%, 0.0116 µM, 121% and 4.9 µM.
Regarding `O=C1c2oc3ccccc3c(=O)c2C(c2ccccc2F)N1Cc1ccc2c(c1)OCO2` (stereo not shown) [NCGC00101942], in experiment [1], the “Beta-arrestin translocation ECmax (%)” value amounted to 12% and the EC50 was 0.528 µM. On hGHSR1a^WT, the “Calcium signaling ECmax (%)” value turned out to be 57%.
Take `O=C1c2oc3ccc(F)cc3c(=O)c2C(c2cccc([N+](=O)[O-])c2)N1CCCN1CCOCC1` (stereo not shown) [NCGC00119778]: the EC50 on hGHSR1a^WT is approximately 62000 µM.
As to `COc1cc(C2c3c(oc4cc(C)c(C)cc4c3=O)C(=O)N2CCCN2CCOCC2)ccc1O` (stereo not shown) [NCGC00101915], the “Beta-arrestin translocation ECmax (%)” value in experiment [1] was 368%. The values for the EC50 (in experiment [1]; at hGHSR1a^WT) were 13.6 µM and approximately 19200 µM, respectively.
Take `Cc1nc2ccc(Oc3ccc(F)cc3)cc2c(=O)n1C[C@H]1CCCN(C(C)C)C1` [YIL781, reference compound]: the “inhibition of iCa2+ evoked by N8279, ghrelin or L585” value on hGHSR1a^WT was “competitively inhibited”.
Turning to `COc1cccc(C2c3c(oc4ccccc4c3=O)C(=O)N2CCCN2CCOCC2)c1` (stereo not shown) [MLS002585710], at hGHSR1a^WT, the “Calcium signaling ECmax (%)” value is 56% and the EC50 was found to be 0.0176 µM.
Regarding `CCOc1ccc(C2c3c(oc4ccccc4c3=O)C(=O)N2CCCN2CCOCC2)cc1OCC` (stereo not shown) [MLS000115604], in experiment [1], the “Beta-arrestin translocation ECmax (%)” value came out at 38% and the EC50 is 0.00298 µM. Moreover, at hGHSR1a^WT, the “Calcium signaling ECmax (%)” value stood at 51% and the EC50 worked out at 0.00804 µM.
For `Cc1ccc2oc3c(c(=O)c2c1)C(c1cccc(O)c1)N(CCCN1CCOCC1)C3=O` (stereo not shown) [NCGC00101913], in experiment [1], the “Beta-arrestin translocation ECmax (%)” value is recorded as 153%. Also, the figures for the EC50 (in experiment [1]; on hGHSR1a^WT) were 1.55 µM and approximately 18000 µM, respectively.
The like results for `CCCCOc1ccc(C2c3c(oc4ccc(C)cc4c3=O)C(=O)N2CCCN(C)C)cc1OCC` (stereo not shown) [NCGC00101941] were, in that order, 83%, 0.095 µM and approximately 26900 µM.
For `CCOc1cccc(C2c3c(oc4ccc(F)cc4c3=O)C(=O)N2CCOC)c1` (stereo not shown) [NCGC00101945], in experiment [1], the “Beta-arrestin translocation ECmax (%)” value is 7% and the EC50 came out at 2 µM. For the same compound, on hGHSR1a^WT, the “Calcium signaling ECmax (%)” value came to 63% and the EC50 was determined as 1.2 µM.
The like results for `COc1ccc(C2c3c(oc4ccc(C)cc4c3=O)C(=O)N2CCCN2CCOCC2)cc1OC` (stereo not shown) [NCGC00141954] were, in that order, 196%, 5.33 µM, 105% and 0.714 µM.
The like results for `COc1ccc(OC)c(C2c3c(oc4ccc(C)cc4c3=O)C(=O)N2CCCN(C)C)c1` (stereo not shown) [NCGC00136184] were, in that order, 24%, 2.33 µM, 129% and 13.1 µM.
As for `CCOc1ccc(C2c3c(oc4ccc(C)cc4c3=O)C(=O)N2CCCN(C)C)cc1` (stereo not shown) [NCGC00141058], in experiment [1], the “Beta-arrestin translocation ECmax (%)” value amounted to 142% and the EC50 was found to be 2.03 µM. For the same compound, at hGHSR1a^WT, the “Calcium signaling ECmax (%)” value is on record as 97% and the EC50 is 1.29 µM.
With `Cc1ccc2oc3c(c(=O)c2c1)C(c1ccc(O)cc1)N(CCCN(C)C)C3=O` (stereo not shown) [NCGC00101937], in experiment [1], the “Beta-arrestin translocation ECmax (%)” value turned out to be 49% and the EC50 came out at 0.855 µM. Moreover, at hGHSR1a^WT, the “Calcium signaling ECmax (%)” value came out at 112% and the EC50 was found to be 2.78 µM.
Take `COc1cccc(C2c3c(oc4ccc(C)cc4c3=O)C(=O)N2CCCN2CCOCC2)c1OC` (stereo not shown) [NCGC00136166]: in experiment [1], the “Beta-arrestin translocation ECmax (%)” value was determined as 11% and the 50% effective concentration (EC50) was 0.0716 µM. On hGHSR1a^WT, the EC50 was approximately 296 µM.
`C=CCOc1ccc(C2c3c(oc4ccc(C)cc4c3=O)C(=O)N2CCCN2CCOCC2)cc1` (stereo not shown) [NCGC00101909]: in experiment [1], the “Beta-arrestin translocation ECmax (%)” value is 64% and the EC50 is 0.254 µM. The EC50 on hGHSR1a^WT was approximately 3020 µM.
Regarding JMV2959 [reference compound], at hGHSR1a^WT, the “inhibition of iCa2+ evoked by N8279, ghrelin or L585” value is “competitively inhibited”.
For `CCOc1cc(C2c3c(oc4ccccc4c3=O)C(=O)N2Cc2ccc(OC)cc2)ccc1O` (stereo not shown) [NCGC00101920], the “Beta-arrestin translocation ECmax (%)” value in experiment [1] amounted to 9%. The EC50 is 0.0165 µM in experiment [1] and approximately 18500 µM at hGHSR1a^WT.
As for `CCCOc1ccc(C2c3c(oc4ccccc4c3=O)C(=O)N2c2ccc(C)cn2)cc1OCC` (stereo not shown) [NCGC00101673], in experiment [1], the “Beta-arrestin translocation ECmax (%)” value came to 49% and the EC50 amounted to 2.4 µM. Moreover, on hGHSR1a^WT, the “Calcium signaling ECmax (%)” value is reported as 115% and the EC50 stood at 32.4 µM.
Consider `Cc1ccc2oc3c(c(=O)c2c1)C(c1ccccc1F)N(CCCN1CCOCC1)C3=O` (stereo not shown) [NCGC00101911], for which, on hGHSR1a^WT, the “Calcium signaling ECmax (%)” value is 44% and the half-maximal effective concentration (EC50) was found to be 0.00226 µM.
For `Cc1ccc2oc3c(c(=O)c2c1)C(c1cccc(Cl)c1)N(CCCN1CCOCC1)C3=O` (stereo not shown) [MLS000103531], in experiment [1], the “Beta-arrestin translocation ECmax (%)” value was 204% and the EC50 amounted to 6.3 µM. Moreover, at hGHSR1a^WT, the “Calcium signaling ECmax (%)” value was 8% and the EC50 was 0.00032 µM.
Take `CCCOc1ccc(C2c3c(oc4cc(C)c(C)cc4c3=O)C(=O)N2CCCN2CCOCC2)cc1` (stereo not shown) [MLS000115606]: in experiment [1], the “Beta-arrestin translocation ECmax (%)” value was determined as 24% and the EC50 was 0.0312 µM.
As for `CCCOc1ccc(C2c3c(oc4cc(C)c(C)cc4c3=O)C(=O)N2CCCN(C)C)cc1OCC` (stereo not shown) [MLS000115621], in experiment [1], the “Beta-arrestin translocation ECmax (%)” value was 0%. Moreover, on hGHSR1a^WT, the “Calcium signaling ECmax (%)” value came out at 126% and the EC50 came to 2.38 µM.
Regarding `CCCOc1cccc(C2c3c(oc4cc(C)c(C)cc4c3=O)C(=O)N2CCCN2CCOCC2)c1` (stereo not shown) [NCGC00101917], in experiment [1], the “Beta-arrestin translocation ECmax (%)” value amounted to 20% and the EC50 was 0.00424 µM. On hGHSR1a^WT, the “Calcium signaling ECmax (%)” value was 39% and the EC50 came out at 0.0043 µM.
Turning to `COc1cccc(C2c3c(oc4ccccc4c3=O)C(=O)N2CCCN2CCOCC2)c1` (stereo not shown) [MLS000115599], at hGHSR1a^WT, the “Calcium signaling ECmax (%)” value was 71% and the EC50 is 20.4 µM.
For `Cc1ccc2oc3c(c(=O)c2c1)C(c1ccc([N+](=O)[O-])cc1)N(CCCN1CCOCC1)C3=O` (stereo not shown) [NCGC00119776], in experiment [1], the “Beta-arrestin translocation ECmax (%)” value amounted to 26% and the EC50 came to 0.0499 µM. At hGHSR1a^WT, the “Calcium signaling ECmax (%)” value was 125% and the EC50 amounted to 12 µM.
For the compound `Cc1ccc2oc3c(c(=O)c2c1)C(c1ccc(O)cc1)N(Cc1ccc2c(c1)OCO2)C3=O` (stereo not shown) [NCGC00101948], the EC50 on hGHSR1a^WT is approximately 11200 µM.
For the compound `COc1ccc(C2c3c(oc4ccc(F)cc4c3=O)C(=O)N2Cc2ccc3c(c2)OCO3)cc1` (stereo not shown) [NCGC00101634], in experiment [1], the “Beta-arrestin translocation ECmax (%)” value came out at 10% and the EC50 is 0.426 µM. Also, on hGHSR1a^WT, the “Calcium signaling ECmax (%)” value amounted to 61% and the EC50 was found to be 7.71 µM.
